Assay results from US10440955B2, “Methods comprising a biocidal polyamine” (Curza Global, LLC, priority 2013, dated 2019).
“And” between values parts separate entries of the source, which are not always exact repeats. Equal values may be shown once. Where a name gives a salt, the structure may show the parent alone.

Assays:
P. aeruginosa biofilms = experiment: MBEC, MBEC Inoculation Tray (Innovotech), to 10^2 CFU/peg in 24 hours; format: cell-based; conditions: Pseudomonas aeruginosa; Table 3A c5; group head missing, probably MBEC; read-out: MICs (μg/mL): P. aeruginosa (second P. aeruginosa)
Source text: To determine the MBEC of each polyamine compound, the MBEC Inoculation Tray by Innovotech, formerly known as the Calgary biofilm device, was used. Within this device, biofilms grow on the surface of polystyrene pegs, 96 of which are attached to a lid. These pegs are inserted into a flat bottom 96-well plate. In this instance, the MBEC of a molecule was defined as the concentration of compound (in μg/mL) required to reduce 10^5 or 10^6 CFU/peg (biofilm levels varied by isolate) to 10^2 CFU/peg in a 24-hour period.
Following the manufacturer's guidelines, biofilms were grown on the surface of each peg by first making a 0.5 McFarland of each isolate. The 0.5 McFarland was diluted 1:100 in CAMHB. Into each well of a flat bottom 96-well plate, 150 μL of broth were pipetted. The plate was shaken at 100 rpm for 24 hours (P. aeruginosa and A. baumannii) or 48 hours (MRSA). The pegs were then placed into a separate flat bottom 96-well plate for 10 seconds with 200 μL of phosphate buffered saline (PBS) in each well to remove nonadherent cells. The lid was then placed into a 96-well plate that contained varying concentrations of antimicrobial with 200 μL per well. The plate was incubated for 24 hours at 37° C. after which time 100 μL of broth were plated on TSA. TSA plates were incubated 24 hours at 37° C. and the number of CFU counted to calculate the CFU/peg. […]

[1] = test system: various bacterial cell cultures; experiment: Antimicrobial activity of polyamines in hydrogel on agar lawns; format: cell-based; conditions: 0.5% CZ compound in 0.5% sodium hyaluronate gel, 500 uL on TSA lawn, 37 C for 24 hours
Description: A 0.5 McFarland standard of each bacteria was made, then individual lawns of bacteria spread onto the surface of tryptic soy agar (TSA). 500 uL of the suspended gel were placed on the center of each lawn. Plates were incubated at 37 C for 24 hours, then imaged. Images of the resulting gels are shown in FIGS. 30A to 30I show the effects of the polyamines CZ-86, CZ-100, and CZ-110 on various bacterial cell cultures.
The hydrogel that was used for those images is a LifeCore gel with 1% sodium hyaluronate (1% Sodium Hyaluronate Solution Part #82). The CZ compound was suspended in water at 1% (w/w) concentration and combined with the LifeCore gel 1:1 for a final product that contained 0.5% sodium hyaluronate and 0.5% CZ compound.

MRSA biofilms = experiment: EBEC, biofilms on PEEK membranes, eradication of all detectable bacteria (Example 2); format: cell-based, Staphylococcus aureus; conditions: ~2×10^11 cells per PEEK membrane, eradicate all detectable bacteria
Description: The fourth test that was performed was the effective biofilm eradication concentration (EBEC). To determine the EBEC, biofilms of MRSA and P. aeruginosa ATCC 27853 were grown on the surface of PEEK membranes using a previously established protocol. Briefly, 500 mL of brain heart infusion (BHI) broth were inoculated with 10^5 cells/mL of MRSA or P. aeruginosa. BHI broth was placed into a membrane biofilm reactor and placed on a hot plate set at 34° C. for 24 hours with a stir bar rotating at 130 rpm. Following the initial 24-hour growth period, a 10% BHI broth solution was flowed through the reactor at a rate of 6.944 mL/min for another 24 hours. After 48 hours of growth, each PEEK membrane had biofilm growth on it. In this experiment, there were ˜2×10^11 cells of MRSA per PEEK membrane and ˜2×10^10 cells of P. aeruginosa per PEEK membrane. The EBEC was defined as the concentration of the compound that was required to eradicate all detectable amounts (100%) of bacteria within the biofilms.

In the case of `NCCCNCCCNCc1ccccc1` [CZ-7, benzylnorspermidine], the MIC (P. aeruginosa biofilms) is reported as greater than 5000 µg/mL.

`CC(C)CNCCCNCCCNCc1cc(CNCCCNCCCNCC(C)C)cc(-c2ccccc2)c1` [CZ-86, N^1,N^1′-([1,1′-biphenyl]-3,5-diylbis(methylene))bis(N^3-(3-(isobutylamino)propyl)propane-1,3-diamine), hydrochloride salt] was tested, and the “zones of inhibition in bacterial lawns” value [1] was “created zones of inhibition”.

For `CN[C@H](CC(C)C)C(=O)N[C@H]1C(=O)N[C@@H](CC(N)=O)C(=O)N[C@H]2C(=O)N[C@H]3C(=O)N[C@H](C(=O)N[C@H](C(=O)O)c4cc(O)cc(O)c4-c4cc3ccc4O)[C@H](O)c3ccc(c(Cl)c3)Oc3cc2cc(c3O[C@@H]2O[C@H](CO)[C@@H](O)[C@H](O)[C@H]2O[C@H]2C[C@](C)(N)[C@H](O)[C@H](C)O2)Oc2ccc(cc2Cl)[C@H]1O` [vancomycin, reference compound], the “EBEC (μg/mL/μM)” value (MRSA biofilms) was > 20,000 μg/mL and > 13,460 μM.
